Laboratory results taken from patent publication US20040132755A1, “Isoxazoles and uses thereof” (priority 2002, published 2004).

Tested on: LPS-induced tumor necrosis factor-α (TNF-α) production in mixed glial cells
Test: In vitro CNS inflammation assay
Assay type: cell-based
Settings: Rattus norvegicus, Glial cell, 6 h, LPS 50 ng/ml, TNF-α ELISA
Description: This protocol describes the procedure used to induce experimental inflammation by lipopolysacchride (LPS) in cultured CNS mixed glial cells. The anti-inflammatory effect of test compounds was evaluated against LPS-induced tumor necrosis factor-α (TNF-α) production in mixed glial cells.
The following steps were performed the day of the assay:
The mixed glial cells (7 days from initial culture) were replenished with mixed glial culture media consist of 50:50:10:1 combination of DMEM (high glucose: Invitrogen Corp), F-12 (Invitrogen Corp), 100% fetal bovine serum and 100×N-2 supplement (Invitrogen Corp). These mixed glial cells were prepared according to Park L C, Calingasan N Y, Uchida K, Zhang H, Gibson G E. (2000) “Metabolic impairment elicits brain cell type-selective changes in oxidative stress and cell death in culture.” J Neurochem 74(1):114-124 with some modification. Briefly, rat […] forebrains (1-2 day old) were isolated, triturated and plated on 96-well plates (20,000 cells per well) in mixed glial media in 5% CO2 incubator at 37° C. […]
The quantitative determination of TNF-αpresent in cell culture medium produced by mixed glial cells was performed using a solid phase sandwich enzyme linked immno-sorbent assay (ELISA) method based on the protocol and reagents provided by Biosource rat TNF-α ELISA kit (Biosource International).

OC1CCN(Cc2onc(-c3ccc(F)cc3)c2-c2ccnc(NC3CCCCC3)n2)CC1 [I-1] was tested, and the IC50 was ≤ 1 µM.
